Laboratory results reported in patent US9624166B2, “Tetracycline compounds” (Tetraphase Pharmaceuticals, Inc., priority 2009, dated 2017).

What was measured:
[1] = tested on: S. aureus ATCC 13709 (Smith); test: Murine systemic infection (septicemia) model with intraperitoneal challenge of S. aureus; format: in vivo; conditions: CD-1 female mice, i.v. one hour post-challenge, SA Smith septicemia, survival after 48 hours, Probit analysis
Description: Murine Systemic Infection Model with Intraperitoneal Challenge of S. aureus
In the model, CD-1 female mice (18-20 grams) were injected intraperitoneally with S. aureus ATCC 13709 (Smith) (1-2×10^6/mouse) mixed with 5% hog gastric mucin, a bacterial inoculum previously established through virulence studies required to achieve 90-100% lethality within 24-48 hours. Typically, six mice were treated intravenously per dose group one hour post-challenge with either compound 101, compound 105, compound 145, compound 153, compound 166, and compound 218, tetracycline or tigecycline at doses ranging from 0.05-10 mg/kg. After 48 hours, percent survival was calculated and the dose (mg/kg) effecting 50% survival, the protective dose 50% (PD50), was reported along as calculated by Probit analysis.
The PD50 values of compound 101, compound 105, compound 145, compound 153, compound 166, and compound 218 and comparators tigecycline and tetracycline in the S. aureus ATCC 13709 mouse septicemia model are described in Table 6.

[2] = tested on: P. aeruginosa ATCC 27853 (PA111, wt, control); test: MIC assay, PA111; format: cell-based; conditions: numeric MIC of control compounds
Description: (§1) Minimum Inhibitory Concentration (MIC) Assay
(§2) MICs were determined according to the Clinical and Laboratory Standards Institute (CLSI) guidances (e.g., CLSI. Performance standards for antimicrobial susceptibility testing; nineteenth information supplement. CLSI document M100-S19, CLSI, 940 West Valley Road, Suite 1400, Wayne, Pa. 19087-1898, USA, 2009). Briefly, frozen bacterial strains were thawed and subcultured onto Mueller Hinton Broth (MHB) or other appropriate media (Streptococcus requires blood and Haemophilus requires hemin and NAD). Following incubation overnight, the strains were subcultured onto Mueller Hinton Agar and again incubated overnight. […] Isolated colonies were selected to prepare a starting inoculum equivalent to a 0.5 McFarland standard. The starting inoculum was diluted 1:125 using MHB for further use. Test compounds were prepared by dilution in sterile water to a final concentration of 5.128 mg/mL. Antibiotics (stored frozen, thawed and used within 3 hours of thawing) and compounds were further diluted to the desired working concentrations.
(§3) The assays were run as follows. Fifty μL of MHB was added to wells 2-12 of a 96-well plate. One hundred μL of appropriately diluted antibiotics was added to well 1. Fifty μL of antibiotics was removed from well 1 and added to well 2 and the contents of well 2 mixed by pipetting up and down five times. Fifty μL of the mixture in well 2 was removed and added to well 3 and mixed as above. Serial dilutions were continued in the same manner through well 12. Fifty μL was removed from well 12 so that all contained 50 μL. Fifty μL of the working inoculum was then added to all test wells. A growth control well was prepared by adding 50 μL of working inoculum and 50 μL of MHB to an empty well. The plates were then incubated at 37° C. overnight, removed from the incubator and each well was read on a plate reading mirror. The lowest concentration (MIC) of test compound that inhibited the growth of the bacteria was recorded.
(§4) Fifteen bacterial strains, listed below, were examined in minimum inhibitory concentration (MIC) assays.

[3] = tested on: A. baumanii ATCC 19606 (AB110, wt); test: MIC assay, AB110; format: cell-based; conditions: numeric MIC of control compounds
Description: as §1, §2, §3, §4

[4] = tested on: E. coli ATCC 25922 (EC107, wt, control); test: MIC assay, EC107; format: cell-based; conditions: numeric MIC of control compounds
Description: as §1, §2, §3, §4

[5] = tested on: E. cloacae ATCC 13047 (EC108, wt); test: MIC assay, EC108; format: cell-based; conditions: numeric MIC of control compounds
Description: as §1, §2, §3, §4

[6] = tested on: K. pneumoniae ATCC 13883 (KP109, wt); test: MIC assay, KP109; format: cell-based; conditions: numeric MIC of control compounds
Description: as §1, §2, §3, §4

SMILES | PD50 (protective dose 50%, dose effecting 50% survival) [1] [mg/kg] | MIC PA111 [2] [µg/mL] | MIC AB110 [3] [µg/mL] | MIC EC107 [4] [µg/mL] | MIC EC108 [5] [µg/mL] | MIC KP109 [6] [µg/mL]
CN(C)[C@@H]1C(O)=C(C(N)=O)C(=O)[C@@]2(O)C(O)=C3C(=O)c4c(O)cccc4[C@@](C)(O)[C@H]3C[C@@H]12 [Tetracycline, tetracycline] | 1.0 | – | – | – | – | –
COc1cc(NS(=O)(=O)c2ccccc2)c(O)c2c1C[C@H]1C[C@H]3[C@H](N(C)C)C(O)=C(C(N)=O)C(=O)[C@@]3(O)C(O)=C1C2=O [Compound 153] | >10 | – | – | – | – | –
COc1cc(NS(=O)(=O)CC(C)C)c(O)c2c1C[C@H]1C[C@H]3[C@H](N(C)C)C(O)=C(C(N)=O)C(=O)[C@@]3(O)C(O)=C1C2=O [Compound 166] | 4.3 | – | – | – | – | –
CN(C)c1ccc(O)c2c1C[C@H]1C[C@H]3[C@H](N(C)C)C(O)=C(C(N)=O)C(=O)[C@@]3(O)C(O)=C1C2=O [Minocycline] | – | 16 | 0.06 | 0.5 | 2 | 1
COc1cc(NC(=O)CN(C)C)c(O)c2c1C[C@H]1C[C@H]3[C@H](N(C)C)C(O)=C(C(N)=O)C(=O)[C@@]3(O)C(O)=C1C2=O [Compound 105] | 0.25 | – | – | – | – | –
CCN(C)CC(=O)Nc1cc(OC(F)(F)F)c2c(c1O)C(=O)C1=C(O)[C@]3(O)C(=O)C(C(N)=O)=C(O)[C@@H](N(C)C)[C@@H]3C[C@@H]1C2 [Compound 218] | 1.4 | – | – | – | – | –
CN(C)c1cc(NC(=O)CNC(C)(C)C)c(O)c2c1C[C@H]1C[C@H]3[C@H](N(C)C)C(O)=C(C(N)=O)C(=O)[C@@]3(O)C(O)=C1C2=O [Tigecycline, tigecycline] | 0.97 | 8 | 0.25 | 0.03 | 0.25 | 0.125
COc1cc(NC(=O)CN2CCCC2)c(O)c2c1C[C@H]1C[C@H]3[C@H](N(C)C)C(O)=C(C(N)=O)C(=O)[C@@]3(O)C(O)=C1C2=O [Compound 101] | 0.36 | – | – | – | – | –
CN(C)[C@@H]1C(O)=C(C(N)=O)C(=O)[C@@]2(O)C(O)=C3C(=O)c4c(O)cccc4C[C@H]3C[C@@H]12 [Sancycline] | – | > 32 | 0.25 | 8 | 8 | 8
